From ChEMBL document CHEMBL1201862, “PubChem BioAssay data set” (2004)
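Briefly, cells in 96-well plates were exposed to five compound concentrations for 48 h, and endpoints were estimated by linear interpolation. GI50 is the concentration that inhibits growth by half.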 The source made the active and inactive calls. No stated cut-off is given here; in the data, active = GI50 up to about 1.1 µM and inactive = higher.

Experiments:
Experiment in all cases: NCI-60 cell line screen, 48 h
UACC-257 = tested on: UACC-257
IGROV-1 = tested on: IGROV-1
UACC-62 = tested on: UACC-62
SK-MEL-28 = tested on: SK-MEL-28
Malme-3M = tested on: Malme-3M
A498 = tested on: A498
NCI/ADR-RES = tested on: NCI/ADR-RES
MDA-MB-231 = tested on: MDA-MB-231
SR = tested on: SR
M14 = tested on: M14
RXF 393 = tested on: RXF 393
LOX IMVI = tested on: LOX IMVI
NCI-H226 = tested on: NCI-H226
NCI-H23 = tested on: NCI-H23
UO-31 = tested on: UO-31
K562 = tested on: K562
HL-60 = tested on: HL-60
SNB-75 = tested on: SNB-75
MOLT-4 = tested on: MOLT-4
SNB-19 = tested on: SNB-19

Measured: GI50

CCOP(=O)(OCC)/C(=C\n1ccc(=O)[nH]c1=S)C(=O)OC
inactive: UACC-257 > 100 µM | IGROV-1 > 100 µM | UACC-62 > 100 µM | SK-MEL-28 > 100 µM | Malme-3M > 100 µM | A498 > 100 µM | NCI/ADR-RES > 100 µM | MDA-MB-231 > 100 µM | SR > 100 µM | M14 > 100 µM | RXF 393 > 100 µM | LOX IMVI > 100 µM | NCI-H226 > 100 µM | NCI-H23 > 100 µM | UO-31 > 100 µM | K562 > 100 µM | HL-60 > 100 µM | SNB-75 > 100 µM | MOLT-4 > 100 µM

O=C(O)CNCP(=O)(O)O [GLYPHOSATE]
inactive: UACC-257 > 100 µM | IGROV-1 > 100 µM | UACC-62 > 100 µM | SK-MEL-28 > 100 µM | SNB-19 > 100 µM | Malme-3M > 100 µM | A498 > 100 µM | NCI/ADR-RES > 100 µM | MDA-MB-231 > 100 µM | SR > 100 µM | M14 > 100 µM | RXF 393 > 100 µM | LOX IMVI > 100 µM | NCI-H226 > 100 µM | NCI-H23 > 100 µM | K562 > 100 µM | HL-60 > 100 µM | SNB-75 > 100 µM | MOLT-4 > 100 µM

OC(Cc1ccccc1)(Cc1ccccc1)c1ccccc1
inactive: UACC-257 18.5 µM | IGROV-1 16.3 µM | UACC-62 16.9 µM | SK-MEL-28 21.9 µM | SNB-19 26.1 µM | Malme-3M 13.1 µM | A498 19.9 µM | NCI/ADR-RES 23 µM | MDA-MB-231 19 µM | SR 25.1 µM | M14 17.7 µM | RXF 393 15.3 µM | LOX IMVI 18.3 µM | NCI-H226 18.4 µM | NCI-H23 18.8 µM | UO-31 17.5 µM | K562 26.8 µM | HL-60 22 µM | MOLT-4 24.6 µM

O=C(/C=C(\Nc1ccccc1O)c1ccccc1)C(=O)NC12CC3CC(CC(C3)C1)C2
inactive: UACC-257 > 10 µM | IGROV-1 > 10 µM | SK-MEL-28 > 10 µM | Malme-3M > 10 µM | A498 > 10 µM | NCI/ADR-RES > 10 µM | MDA-MB-231 > 10 µM | SR 5.33 µM | M14 > 10 µM | RXF 393 > 10 µM | LOX IMVI 9.14 µM | NCI-H226 > 10 µM | NCI-H23 > 10 µM | UO-31 > 10 µM | K562 > 10 µM | HL-60 3.52 µM | SNB-75 > 10 µM | MOLT-4 5.66 µM

Cc1ccc(C2=Nn3c(nc4sc(C)c(C)c4c3=O)SC2)cc1
inactive: UACC-257 > 100 µM | IGROV-1 > 100 µM | UACC-62 > 100 µM | SK-MEL-28 > 100 µM | Malme-3M > 100 µM | A498 > 100 µM | NCI/ADR-RES > 100 µM | MDA-MB-231 > 100 µM | SR > 100 µM | RXF 393 > 100 µM | LOX IMVI > 100 µM | NCI-H226 > 100 µM | NCI-H23 > 100 µM | UO-31 > 100 µM | K562 > 100 µM | HL-60 > 100 µM | SNB-75 56.4 µM | MOLT-4 > 100 µM

Cc1ccc(NC(=O)CC(=O)n2nc(C)c(/N=N/c3cccc(C)c3)c2C)cc1
inactive: UACC-257 > 100 µM | IGROV-1 > 100 µM | UACC-62 > 100 µM | SK-MEL-28 > 100 µM | SNB-19 71.1 µM | Malme-3M > 100 µM | A498 > 100 µM | NCI/ADR-RES > 100 µM | MDA-MB-231 > 100 µM | SR 61.7 µM | M14 > 100 µM | RXF 393 67.3 µM | LOX IMVI > 100 µM | NCI-H226 > 100 µM | NCI-H23 > 100 µM | UO-31 > 100 µM | HL-60 38 µM | SNB-75 18.1 µM | MOLT-4 > 100 µM

CCN(CC)c1ccc(/C=C/c2ccnc3ccccc23)cc1
inactive: UACC-257 > 100 µM | IGROV-1 > 100 µM | UACC-62 > 100 µM | SK-MEL-28 > 100 µM | SNB-19 > 100 µM | Malme-3M > 100 µM | A498 > 100 µM | NCI/ADR-RES > 100 µM | MDA-MB-231 > 100 µM | SR > 100 µM | M14 > 100 µM | RXF 393 > 100 µM | LOX IMVI > 100 µM | NCI-H23 > 100 µM | UO-31 > 100 µM | K562 > 100 µM | HL-60 > 100 µM | SNB-75 > 100 µM
